# Results: EP3193856B1, “FORMULATION” (Pharmaq AS, priority 2014, dated 2016)
# Read-outs that look alike come from different tables or passages of the source.
# Legend:
# [1] = test system: Atlantic salmon; assay: Safety of formulations based on different solvents after intraperitoneal injection; format: in vivo; settings: i.p. 0.2 ml; 37.8 g, freshwater 17°C; 3 week period
# Experimental: Atlantic salmon (average size: 37.8 g) kept in freshwater (17°C) were divided into 11 groups of 5 or 25 fish per group. Mortality was then logged over a 3 week period. […]
# [2] = test system: Atlantic salmon; settings: in vivo, ip, 3 months
# Experimental: To investigate the toxicity of the polar solvent further, formulations comprising different amounts of DMSO were prepared as detailed in Table 4. The formulations were intraperitoneally injected in a single dose into Atlantic salmon (19 - 38 g) kept in freshwater (8 - 17 °C). The eventual toxicity induced by each formulation was assessed by continuous registration of mortality up until 3 months post injection, and is shown in Table 4.
# Therefore, it was extremely surprising to find that doses as low as about 1 g/kg cause mortality in Atlantic salmon.
# [3] = test system: salmonids; settings: Benville et al 1968; cited from earlier work
# [4] = Solubility of hexaflumuron, solvent added gradually until complete dissolution; format: physicochemical; settings: for solubility: thermodynamic from solid
# Experimental: In order to produce a formulation in which hexaflumuron was present in stable solution, the solubility of hexaflumuron in various other solvents was investigated. Solubility was determined by adding each solvent gradually to a specific mass of hexaflumuron until complete dissolution was observed.
# [5] = Maximum solubility of hexaflumuron in PEG/DMSO/CA as a function of PEG molecular weight (Figure 6); format: physicochemical; settings: PEG600/DMSO/CA mixture, organic solvent or mixture, thermodynamic from solid; formulation with 85% by weight PEG600 and 15% by weight DMSO
# Experimental: An experiment was performed in order to investigate the solubility of parasiticide (hexaflumuron) in a formulation comprising PEG (85 mass%), DMSO (15 mass%), and CA (0.3 volume %) as a function of PEG molecular weight. Increasing amounts of hexaflumuron were dissolved in different mixtures of PEG/DMSO/CA (85/15/0.3) with PEG molecular weights ranging from 200 to 600.
# [6] = test system: Lepeophtheirus salmonis; assay: Sea lice challenge of treated Atlantic salmon; format: in vivo; settings: for Mean number of lice per fish Treated group: chalimus stage counted 2 weeks post challenge, n=10; for Relative effect of treatment: versus untreated group
# Experimental: Atlantic salmon (total n=180) were kept in full seawater (3.5% salinity, 12°C). Half of the population (n=90) were treated with parasiticide (in this case hexaflumuron) on day 0. Treated and untreated fish (n=10 per group) were randomly collected from each group and challenged with copepodids of Lepeophtheirus salmonis in a common challenge tank during a 12 weeks period. This was done six times after treatments, in weeks 1, 3, 6, 8, 10 and 12 post treatment. The number of lice reaching chalimus stage was registered on each fish 2 weeks post challenge. Concentration of hexaflumuron in a portion of muscle with skin was also measured in each fish at the time of lice count.
# [7] = cited from earlier work
compound,measurement,setting,value
COCC(C)O (stereo not shown) [1-methoxy-2-propanol],% Mortality,[1],100%
"C[S+](C)[O-] [DMSO, Dimethyl sulfoxide]",doses at which DMSO was found to be toxic,[2],> 1000 mg/kg
same,LD50,[3],12000 to 17000 mg/kg
same,dose reported not to give any mortality,[3],7050 mg/kg
CCOC(C)=O [Ethyl acetate],% Mortality,[1],100%
O=C(NC(=O)c1c(F)cccc1F)Nc1cc(Cl)c(OC(F)(F)C(F)F)c(Cl)c1 [Hexaflumuron],solubility,"[4]; oil or lipid, solvent: Isopropyl myristate",< 1 mg/mL
same,solubility,"[4]; oil or lipid, solvent: Paraffin Light Liquid",< 0.1 mg/mL
same,solubility,"[4]; organic solvent or mixture, solvent: Acetone",> 130 mg/mL
same,solubility,"[4]; organic solvent or mixture, solvent: DMA",> 300 mg/mL
same,solubility,"[4]; organic solvent or mixture, solvent: DMF",> 300 mg/mL
same,solubility,"[4]; organic solvent or mixture, solvent: DMSO",> 300 mg/mL
same,solubility,"[4]; organic solvent or mixture, solvent: Ethyl acetate",> 75 mg/mL
same,solubility,"[4]; organic solvent or mixture, solvent: NMP",> 300 mg/mL
same,solubility,"[4]; organic solvent or mixture, solvent: Propylene glycol (PG)",< 0.5 mg/mL
same,solubility,"[4]; organic solvent or mixture, solvent: Tetraglycol",> 75 mg/mL
same,solubility,"[4]; organic solvent or mixture, solvent: n-heptane",< 0.5 mg/mL
same,Hexaflumuron Solubility,[4]; solvent: DMSO,>300 mg/mL
same,solubility,[5],~130 mg/mL
same,Mean number of lice per fish Treated group,"[6]; challenged week 1 post treatment, Atlantic salmon, seawater 12°C",0
same,Mean number of lice per fish Treated group,[6]; challenged week 3 post treatment,0
same,Mean number of lice per fish Treated group,[6]; challenged week 6 post treatment,0
same,Mean number of lice per fish Treated group,[6]; challenged week 8 post treatment,0.2
same,Mean number of lice per fish Treated group,[6]; challenged week 10 post treatment,1.7
same,Mean number of lice per fish Treated group,[6]; challenged week 12 post treatment,27.6
same,Relative effect of treatment,[6]; week 1 post treatment,100%
same,Relative effect of treatment,[6]; week 3 post treatment,100%
same,Relative effect of treatment,[6]; week 6 post treatment,100%
same,Relative effect of treatment,[6]; week 8 post treatment,98%
same,Relative effect of treatment,[6]; week 10 post treatment,69%
same,Relative effect of treatment,[6]; week 12 post treatment,47%
same,Hexaflumuron Solubility,[7]; solvent: Methanol,11300 µg/mL
same,Hexaflumuron Solubility,[7]; solvent: Water,0.027 µg/mL
same,Hexaflumuron Solubility,"[7]; solvent: Water, listed as hexaflumuron",about 2.7 x 10^-5 mg/ml
same,Hexaflumuron Solubility,[7]; solvent: Xylene,5200 µg/mL
"CN1CCCC1=O [NMP, n-methyl-2-pyrrolidone]",% Mortality,[1],100%
"CC(O)CO (stereo not shown) [PG, propylene glycol]",% Mortality,[1],0%
Glycofurol,% Mortality,[1],100%
